# What was measured:
# [1] = tested on: 45 kDa guinea-pig lung membrane protein; assay: Deglycosylation of the photoaffinity labelled 45 kDa guinea-pig lung membrane protein by N-Glycosidase F; format: biochemical; details: 1 μM LTD4
# Protocol: FIG. 10. […] Following photolysis the guinea-pig lung membranes were recovered from 1 ml sample aliquots by centrifugation at 150,000×g for 15 min at 4° C. The membranes were then solubilized in 20 μl of incubation buffer (20 mM NaHPO4, pH 7.4, containing 10 mM EDTA and 1 % (v/v) 2-mercaptoethanol) containing 1 % (w/v) SDS. The solubilized preparation was then diluted with incubation buffer to a final volume of 200 μl containing 1 % (w/v) octylglucoside and 0-60 U / ml of recombinant N-Glycosidase F, and incubated overnight at room temperature. Samples were further diluted in 3-fold concentrated SDS sample buffer and analysed by SDS-PAGE, followed by autoradiography. […] The migration of the molecular weight standards is indicated on the left.
# In every case the only detectable product was the 40 kDa protein. […] This is also supported by qualitative evidence since the radiolabelled precursor migrated as a diffuse band during SDS-PAGE, behaviour typical of glycoproteins, while the deglycosylated product migrated as a more focused band.
# [2] = target: T1, LTD4 receptor (guinea-pig lung membranes) (Cavia porcellus, UniProt Q2NNR5); details: 60 pM radioligand, 20-30 μg membrane protein
# T1 sequence (Q2NNR5 1-340): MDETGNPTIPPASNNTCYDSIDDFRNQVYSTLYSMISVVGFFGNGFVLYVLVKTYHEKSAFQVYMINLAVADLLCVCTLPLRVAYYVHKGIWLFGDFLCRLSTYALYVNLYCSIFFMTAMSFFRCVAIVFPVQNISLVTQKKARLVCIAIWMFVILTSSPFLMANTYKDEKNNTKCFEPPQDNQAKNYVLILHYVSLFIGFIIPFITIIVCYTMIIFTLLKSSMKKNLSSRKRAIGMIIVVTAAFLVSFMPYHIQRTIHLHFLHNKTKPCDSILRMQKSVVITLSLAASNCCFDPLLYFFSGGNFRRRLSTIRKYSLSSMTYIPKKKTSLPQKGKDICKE
# Protocol: Guinea pigs (male; 350 g) were sacrificed by cervical dislocation and the lung tissues removed. All subsequent procedures were performed either on ice or at 4° C. Connective tissue, trachea, large blood vessels and major airways were dissected away and the remaining lung tissue (primarily parenchyma) was finely minced prior to homogenisation in 10 vol of 10 mM HEPES/KOH pH 7.4, containing 0.25 M sucrose, 2 mM EDTA, 2 mM phenylmethylsulphonyl fluoride, 10 μg/ml pepstatin, 10 μg/ml leupeptin and 10 μM E-64, using 5 s bursts of a polytron (Brinkman Instruments). The homogenate was subjected to differential centrifugation at 1000×g for 10 min, 10,000×g for 10 min and 100,000×g for 40 min. The resulting 100,000×g pellets were resuspended in 10 mM HEPES/KOH pH 7.4, containing 10% (w/v) sucrose, at a final protein concentration of 1-2 mg/ml. This tissue suspension was carefully layered over 10 mM HEPES/KOH pH 7.4 containing 40% (w/v) sucrose in a 3:2 (v/v) ratio. The discontinuous sucrose gradient was centrifuged at 83,000×g for 60 min. The membrane fraction located at the interface of the sucrose gradient layers was recovered, diluted 10-fold in 10 mM HEPES/KOH pH 7.4 and further centrifuged at 150,000×g for 40 min. The final membrane pellets were resuspended in 10 mM HEPES/KOH pH 7.4 at a protein concentration of 2-4 mg/ml and stored at […].
# Filters were then washed with 16 ml of 10 mM HEPES/KOH, pH 7.4 containing 0.01% (w/v) bovine serum albumin, at 4° C.
# FIG. 4. […] Radiolabelled proteins were resolved by SDS-PAGE and visualized by autoradiography. […] In addition, photoaffinity labelled membranes were subjected to immunoprecipitation with RAGpAlb (Lane C) and non-immune rabbit serum (Lane D), as described in the Methods. The migration of molecular weight standards is indicated on the left. FIGS. 5(A)-5(C). […] Results are expressed as percentage of maximum specific binding as a function of CaCl2 concentration. […] Only the results for total binding are shown.
# Results are expressed as percentage of maximum specific binding as a function of nucleotide concentration. […] Only the results for total binding are shown.
# Results are expressed as percentage of maximum specific binding as a function of cation concentration. […] Only the results for total binding are shown.
# [3] = RP-HPLC stability of [125I]Azido-LTD4 under binding assay conditions with guinea-pig lung membrane; format: in vitro ADME; details: 60 min
# Protocol: RP-HPLC was conducted to assess the stability of [^125 I]Azido-LTD4 under binding assay conditions. […] Following a 60 min incubation at room temperature, samples were centrifuged at 150,000×g for 15 min at 4° C. The supernatant (unbound radioligand) was removed and the membrane pellet was resuspended by sonication in 150 μl of RP-HPLC solvent ([…] (v/v) MeOH:H2O:HOAc containing 0.01% 2-mercaptoethanol and 0.5 mM EDTA). The samples were centrifuged at 150,000×g for 15 min at 4° C. and the supernatent removed (bound radioligand). Bound and unbound radioligand fractions (100 μl) were analysed by RP-HPLC using a Nova Pac C18 column (0.39 ×15 cm; Waters Assoc.) eluted isocratically at a flow rate of 1 ml/min with RP-HPLC solvent. The profile of iodinated material from bound and unbound radioligand samples was determined by on-line solid scintillation gamma counting (Berthold HPLC radioactivity monitor LB 506 C1). [^125 I]Azido-LTD4 was identified by […] of non-radioactive [^127 I]Azido-LTD4 monitored by optical density at 280 nm.
# FIGS. 2(A) and 2(B) RP-HPLC analysis of [^125 I]Azido-LTD4 stability. RP-HPLC was used to assess the stability of [^125 I]Azido-LDT4 under the conditions routinely employed for binding assays as described in the Methods.
# [4] = target: T1, LTD4 receptor (guinea-pig lung membranes); assay: Rates of association and dissociation of radioligand binding to guinea-pig lung membranes; design: Guinea pigs (male; from tissue; host or cells: guinea-pig lung (primarily parenchyma), sucrose-gradient membrane fraction
# Protocol: FIG. 3. […] Aliquots (500 μl) were removed and filtered at the required time intervals.
# [5] = tested on: 66.2 kDa protein (guinea-pig serum albumin); assay: Photoaffinity labelling of 66.2 kDa protein and immunoprecipitation with rabbit anti-guinea-pig albumin antisera; format: binding; details: lung membranes and guinea-pig serum
# Protocol: Samples were incubated for 60 min at room temperature. Aliquots (2×500 μl) were then removed and the bound [^125 I]Azido-LTD4 quantified as described for the filtration binding assays. The residual samples were then transferred to 25 mm diameter cluster plate well for photolysis. The cluster plates were placed on aluminium blocks, pre-cooled to -20° C., and illuminated from above with a 40 W ultraviolet light source (Phillips, γmax =350 nm) at a distance of 10 cm for 2 min. The guinea-pig lung membranes were then recovered from 1 ml sample aliquots by centrifugation at 150,000×g for 15 min at 4° C. and solubilized in sodium dodecyl sulphate polyacrylamide gel electrophoresis (SDS-PAGE) sample buffer prior to resolution of the proteins by SDS-PAGE (Laemmli, 1970). Protein bands were visualized by Coomassie Blue staining while radiolabelled proteins were identified by autoradiography of dried gels and quantified by laser densitometry (Molecular Dynamics, ImageQuant).
# The TXIP solubilized samples were centrifuged at 14,000×g for 15 min at 4° C. and the supernatant mixed directly with 50 μl of non-immune rabbit serum or RAGpAlb premixed for 15 min at 4° C. with 80 μl of protein A-Sepharose (50 mg/ml in TXIP). […] The final immunocomplex was dissociated by resuspension in SDS-PAGE sample buffer for 5 min at 95° C. and analysed by SDS-PAGE and autoradiography of the dried gels. […]
# [6] = target: T1, LTD4 receptor (guinea-pig lung membranes); assay: Saturation binding to guinea-pig lung membranes, Scatchard plot analysis; design: Guinea pigs (male; 350 g) were sacrificed by cervical dislocation and the lung tissues removed; from tissue; host or cells: guinea-pig lung (primarily parenchyma), sucrose-gradient membrane fraction
Compound,presence of radiolabelled precursor and product after pretreatment with LTD4 [1],fraction of added radioligand bound to guinea-pig lung membranes [2],"stability of radioligand ([3]; room temperature, lung membrane, pH 7.4)","recovery of radioactive material following RP-HPLC ([3]; bound and unbound fractions after incubation with lung membrane, 60 pM)","dissociation of binding by 1 μM LTD4 ([4]; 1 μM LTD4, additional 50 min incubation)",association: time to reach equilibrium ([4]; guinea-pig lung membranes) [min],dissociation of binding by 1 μM LTD4 with 10 μM GTPγS ([4]; to non-specific levels),radiolabelling of 66.2 kDa protein (selectivity) [5],"maximum number of binding sites (Bmax) ([6]; Scatchard, single site) [fmol/mg protein]",Kd ([6]; read-out: equilibrium dissociation constant (KD)) [nM]
CCCCC/C=C\C\C=C/C=C/C=C/[C@@H](SC[C@H](N)C(=O)NCC(=O)O)[C@@H](O)CCCC(=O)O [LTD4],not present,–,–,–,–,–,–,–,–,–
CCCCC/C=C\C\C=C/C=C/C=C/[C@@H](SC[C@H](NC(=O)CCCCCNC(=O)c1cc([125I])c(N=[N+]=[N-])cc1O)C(=O)NCC(=O)O)[C@@H](O)CCCC(=O)O [[^125 I]Azido-LTD4],–,10-20%,completely stable,approximately 100%,approximately 50%,60,almost instantaneous and complete dissociation,non-selectively labelled,1000,0.2

# Source: US5310884A (Merck Frosst Canada, Inc., priority 1992, dated 1994)
